The nature of data set [1]: in vivo. To be noted: Sprague-Dawley, rat, sc, 0.4 mg/kg.
Protocol: Sprague-Dawley rats (approximately weighing 120 grams each) were catheterized surgically with jugular and duodenal catheters. Each group of rats, 3-5 animals per group, were given 0.4-2.4 mg/kg of LHRH either as free in solution or incorporated in micelles. As further control, several groups of animals were given a solution of free LHRH subcutaneously at a dose of 0.4 mg/kg of body weight. Blood samples were collected at 0, 20, 40, 60, 90, 120, and 240 minutes following administration of LHRH or controls. The time 0 blood collection was obtained approximately 15 minutes before administration of LHRH formulations. Plasma samples were analyzed by a competitive ELISA assay as follows. Plastic 96 well plates were coated with anti-rabbit immunoglobulins followed by addition of rabbit anti-LHRH and biotinylated-LHRH with sample dilutions. Binding of biotinylated LHRH was assayed by development with BRP-avidin and color development with TMB (tetra-methyl-benzidine). Pharmacokinetic parameters were calculated from the data using WinNonLin software (Pharsight).
Data set [2] in a line: in vivo. Particulars: Sprague-Dawley, rat.
Protocol: Sprague-Dawley rats (approximately weighing 120 grams each) were catheterized surgically with jugular and duodenal catheters. Each group of rats, 4-5 animals per group, were given 0.4-3.6 mg/kg of leuprolide either as free in solution or incorporated in micelles. As further control, several groups of animals were given a solution of free leuprolide subcutaneously. Blood samples were collected at 0, 20, 40, 60, 90, 120, and 240 minutes following administration of leuprolide or controls. The time 0 blood collection was obtained approximately 15 minutes before administration of leuprolide formulations. The amount of leuprolide released into rat serum or leuprolide in formulation was determined by using competitive enzyme-linked immunosorbent assay (ELISA) (Peninsula Laboratories, Inc). The assay system utilizes goat anti-rabbit IgG for solid phase (microwells) immobilization. The test serum or formulation sample was allowed to react simultaneously with the coated antibody, rabbit anti-leuprolide and biotinylated leuprolide. The biotinylated leuprolide competes for the antibody binding sites with standard or the unknown sample leuprolide. After a two-hour (or overnight) incubation at room temperature, unbound biotinylated peptide was removed by washing, and streptavidin-conjugated horseradish peroxidase (SA-HRP) was added and allowed to bind the immobilized rabbit anti-leuprolide/biotinylated leuprolide complex. After washing away excess SA-HRP, 3,3′,5,5′-Tetramethylbenzidine (TMB) was added and incubated for 15 minutes, resulting in the development of a blue color. The addition of Stop Solution stops the reaction and converts the color to yellow. The intensity of the yellow color depends on the quantity of biotinylated leuprolide bound to the immobilized antibody: When more sample leuprolide competes for the limited antibody, less biotinylated leuprolide/SA-HRP can be immobilized, and less color is produced by the substrate.
Data set [3] in a line: in vivo. To be noted: both, beagle, dog, sc, 0.4 mg/kg.
Protocol: Beagle dogs (3 female and 3 male weighing 8-10 kg each) were catheterized surgically with duodenal catheters. For each treatment, the dogs were given 0.4-2.4 mg/kg of leuprolide either in solution or incorporated in micelles. The treatments were administered via the duodenal catheter. For the positive control, the dogs were given a solution of free leuprolide by subcutaneous injection. Blood samples were collected from cephalic catheters or the jugular vein at 0, 15, 30, 45, 60, 90, 120, 240, 360, 480, and 1440 minutes following administration of leuprolide or controls. […] The time 0 blood collection was obtained approximately 10 minutes before administration of leuprolide formulations. The amount of leuprolide released into dog serum was determined by using a competitive enzyme-linked immunosorbent assay (ELISA) from Peninsula Laboratories, Inc. which utilizes goat anti-rabbit IgG for solid phase (microwell) immobilization. The test serum was allowed to react simultaneously with the coated antibody, rabbit anti-leuprolide and biotinylated leuprolide. After two-hour incubation at room temperature, unbound biotinylated peptide was removed by washing, and streptavidin-conjugated horseradish peroxidase (SA-HRP) was added and allowed to bind the immobilized rabbit anti-leuprolide/biotinylated leuprolide complex. After washing away excess SA-HRP, 3,3′5,5′-Tetramethylbenzidine dihydrochloride (B) was added and incubated for 15 minutes, resulting in the development of a blue color. The addition of stop solution stops the reaction and converts the color to yellow. Leuprolide in the samples was quantified by non-linear regression analysis of the standard curve and sample optical density values. Pharmacokinetic parameters are calculated using a pharmacokinetic software with a noncompartmental model.
Data set [4] in a line: Bioavailability of hGH following intraduodenal administration in rats (plasma hGH by ELISA). The data set is classed as in vivo, Sprague-Dawley rats. To be noted: 600 micrograms hGH, FIG. 1. The source says:
Each group of rats, 3-5 animals per group, received 600 micrograms of human growth hormone in Acconon CC-12 reverse micelle formulation or control formulations consisting of aqueous growth hormone or Acconon CC-12 water reverse micelle. Blood samples were obtained from the jugular catheter at the indicated times after administration. Plasma samples were obtained from the collected blood specimens and analyzed for the presence of hGH by an enzyme-linked immunosorbent assay (ELISA) (Alexon-Trend, BioCheck). The assay system utilizes polyclonal sheep anti-hGH for solid phase (microwells) immobilization, and mouse monoclonal anti-hGH in the antibody-enzyme (horseradish peroxidase) conjugate solution. […] After a 45-minute incubation at room temperature, the sample well was washed to remove unbound enzyme labeled antibody. […] The intensity of the yellow color is directly proportional to the concentration of hGH in the sample.
Background: In an ELISA, binding on a coated surface is turned into a signal by an enzyme label.

From patent publication US8535650B2, “Stabilized reverse micelle compositions and uses thereof” (Soligenix, Inc., priority 2001, dated 2013) come the findings set out here.

Usually AUC(0-inf) stands for the area under the concentration-time curve extrapolated to infinity. One may read the Cmax as the maximum level reached in the sampled fluid or tissue. As a reminder, the bioavailability is dose-corrected exposure relative to a reference, in per cent.

`CC(C)C[C@H](NC(=O)CNC(=O)[C@H](Cc1ccc(O)cc1)NC(=O)[C@H](CO)NC(=O)[C@H](Cc1c[nH]c2ccccc12)NC(=O)[C@H](Cc1cnc[nH]1)NC(=O)[C@@H]1CCC(=O)N1)C(=O)N[C@@H](CCCNC(=N)N)C(=O)N1CCC[C@H]1C(=O)NCC(N)=O` [LHRH solution]: in data set [1], the AUC(0-inf) is 31.5 ng·h/mL, the Cmax was found to be 79 ± 51.2 ng/mL and the bioavailability was 100%.
With `CCNC(=O)[C@@H]1CCCN1C(=O)[C@H](CCCNC(=N)N)NC(=O)[C@H](CC(C)C)NC(=O)[C@@H](CC(C)C)NC(=O)[C@H](Cc1ccc(O)cc1)NC(=O)[C@H](CO)NC(=O)[C@H](Cc1c[nH]c2ccccc12)NC(=O)[C@H](Cc1c[nH]cn1)NC(=O)[C@@H]1CCC(=O)N1` [Leuprolide solution, p-Glu-His-Trp-Ser-Tyr-D-Leu-Leu-Arg-Pro-NHC2H5], the bioavailability in data set [2] is about 0.2%; in data set [2] (2.4 mg/kg), 0.23 ± 0.12%; in data set [2] (sc, 0.4 mg/kg) it was 100%; in data set [3] it was 100%. Also, the AUC(0-inf) is 5.43 ng·h/mL in data set [2] (2.4 mg/kg); 397 ng·h/mL in data set [2] (sc, 0.4 mg/kg); 905 ng·h/mL in data set [3]. In addition, the Cmax in data set [2] (2.4 mg/kg) turned out to be 6.3 ± 5.3 ng/mL; in data set [2] (sc, 0.4 mg/kg), 453 ± 94 ng/mL; in data set [3], 412 ± 163 ng/mL.
“aqueous growth hormone: purified human growth hormone dissolved in water, control formulation”: the “absorption of hGH” value in data set [4] is “little to no absorption”.
